Data set [1] in a line: Acute toxicity (LD50). Particulars: in vivo, mouse, mortality within 7 days. An excerpt: 2. Acute toxicity The standard method for the determination of the LD50 values or LD50 ranges via the mortality occurring in Naval Medical Research Institute mice within 7 days after a single intravenous (i.v.), intraperitoneal (i.p.) or oral (p.o.) administration was used.
Data set [2] deals with anesthetized male rats. Briefly: EEG hypoxia-tolerance test (antihypoxic / cerebroprotective action). Type of data set: in vivo, rat. Particulars: ip, read-out: % change in the EEG-RL (EEG hypoxia recovery latency period); for change in vivo at 25 mg/kg: 25 mg/kg i.p.
Method: The compounds according to the invention were tested for a cerebroprotective action towards damage caused by hypoxia by means of the EEG hypoxia-tolerance test (EEG: Electroencephalogram) comparing with the most important representatives of types of compounds which belong to the state of the art. In this method, anesthetized male rats with implanted EEG electrodes are subjected to progressive hypoxia by passing nitrogen into a chamber. […] The criterion used for assessment of an antihypoxic action is the EEG hypoxia recovery latency period (EEG-RL), which is defined as the time from the opening of the chamber after onset of EEG silence until the first signals appear again. […] The compounds according to the invention were administered intraperitoneally 15 minutes before the start of hypoxia. The group size was n =8.
Data set [3] has as its system rat. Kind of data set: Gamma-butyrolactone test on the rat (EEG). Type of data set: in vivo. An excerpt:
(b) Gamma-butyrolactone test on the rat
It is known from the literature (L.I. Wolfson et al., J. Neurochem. 29, 777 (1977)) that gamma-butyrolactone (GBL), inter alia, induces metabolic disturbances in the brain which can be followed by changes in the EEG. The compounds of the formula I are able to antagonize this action of GBL on the EEG.

The subject of data set [4] is naive mice of the male sex. Briefly: Scopolamine-induced retrograde amnesia in the passive avoidance test. Particulars: for minimal effective dose: read-out: minimal effective dose (MED) countering scopolamine. Type of data set: in vivo, mouse. How it is done:
(a) Effect on the scopolamine-induced retrograde amnesia in the passive avoidance test
The test arrangement comprises a light/dark box with an electrifiable mesh floor in the dark section. 90 minutes after administration of placebo and product, naive mice of the male sex are treated subcutaneously with scopolamine hydrobromide (3 mg/kg). The mice are placed in the light section of the box 5 minutes later. After transferring into the dark section they receive there an electric shock to the feet which produces an unpleasant sensation. 24 hours thereafter, each mouse is placed once in the light section of the test apparatus, and the residence time (max. 180 seconds) is measured. […] The significant action of a test substance is calculated, using a median test, by comparison with the control group. The minimal effective dose (MED) of a product is regarded as that which results in a significant action countering scopolamine.

[5] abbreviates: rat, 15 minutes before hypoxia, n = 8, vs untreated control, shortening (negative) = protective.
Where [6] appears, read: rat, 50 mg/kg i.p., 15 minutes before hypoxia, n = 8, vs untreated control, shortening (negative) = protective.

Molecules are shown by their SMILES. Where two headings read alike, the source gives them in different places.

For orientation: LD50 means the dose at which mortality reaches 50%. A word on the minimal effective dose: it is the lowest level tested that produced the effect sought.

In the case of `Cc1cc(N2CCN(c3ccc(F)cc3)CC2)c([N+](=O)[O-])c(C)[n+]1[O-]` [Example 26], the LD50 at 168 h in data set [1] (iv, single i.v. administration) was 200 mg/kg. Also, in data set [2] (setting [5]), the change in vivo at 25 mg/kg was -27%.

Turning to `Cc1cc(N2CCSCC2)c(C#N)c(C)[n+]1[O-].Cl` [Example 1, 3-Cyano-2,6-dimethyl-4-(4-thiomorpholinyl)pyridine 1-oxide hydrochloride], the LD50 at 168 h in data set [1] (iv, single i.v. administration) came to 135 mg/kg; in data set [1] (po, single p.o. administration), 1190 mg/kg. Moreover, the “protective action against GBL-induced EEG changes” value in data set [3] (100 and 200 mg/kg i.p.) was “strong, dose-dependent protective action”. Moreover, the “protective action against GBL compared with piracetam” value in data set [3] (i.p.) is on record as “far exceeded that of the comparison product piracetam”. For the same compound, in data set [2] (setting [5]), the change in vivo at 25 mg/kg is -50%. Besides, the minimal effective dose in data set [4] (mouse, oral, 90 minutes before scopolamine 3 mg/kg s.c.) was 25 mg/kg. Besides, the “effectiveness relative to piracetam (from MED)” value in data set [4] (mouse, oral, passive avoidance) was “four times as effective as piracetam”.

In turn, `c1ccc(Oc2cccnc2)cc1` [3-Phenoxypyridine, reference compound] came in with an LD50 at 168 h in data set [1] (po, single p.o. administration) of 400 to 630 mg/kg. In data set [2] (setting [5]), the change in vivo at 25 mg/kg is -14%.

Compound `Cc1cc(N2CCCCC2)c([N+](=O)[O-])c(C)[n+]1[O-]` [Example 28] had an LD50 at 168 h in data set [1] (iv, single i.v. administration) of 100 to 200 mg/kg. Also, the change in vivo at 25 mg/kg in data set [2] (setting [5]) is -12%.

Compound `Cc1cc(N2CCCCCC2)c(C#N)c(C)[n+]1[O-]` [Example 22] displayed an LD50 at 168 h in data set [1] (iv, single i.v. administration) of 50 to 100 mg/kg. For the same compound, in data set [2] (setting [5]), the change in vivo at 25 mg/kg is -38%.

Take `Cc1cc(N2CCOCC2)c([N+](=O)[O-])c(C)[n+]1[O-]` [Example 5, 2,6-Dimethyl-4-(4-morpholinyl)-3-nitropyridine 1-oxide]: the LD50 at 168 h in data set [1] (iv, single i.v. administration) is over 200 mg/kg. In addition, the change in vivo at 25 mg/kg in data set [2] (setting [5]) is -16%.

For the compound `Cc1cc(N2CCCC2)c(C#N)c(C)[n+]1[O-]` [Example 13], the LD50 at 168 h in data set [1] (iv, single i.v. administration) is 200 mg/kg. Also, in data set [2] (setting [6]), the change in vivo at 50 mg/kg is -32%.

On to `NC(=O)CN1CCCC1=O` [piracetam, 2-oxo-1-pyrrolidineacetamide, reference compound], for which the minimal effective dose in data set [4] (Mus musculus, po) amounted to 100 mg/kg.

`Cc1cc(N2CCSCC2)c(C#N)c(C)n1` [3-Cyano-2,6-dimethyl-4-(4-thiomorpholinyl)pyridine, reference compound]: in data set [1] (ip, single i.p. administration), the LD50 at 168 h lay within 150 to 300 mg/kg.

`Cc1cc(N2CCCCC2)c(C#N)c(C)[n+]1[O-]` [Example 14] displayed an LD50 at 168 h in data set [1] (iv, single i.v. administration) of 100 to 200 mg/kg. In addition, the change in vivo at 50 mg/kg in data set [2] (setting [6]) was -44%.

In the case of `COC(=O)c1c(C)nc(C)c(C#N)c1-c1ccccc1[N+](=O)[O-]` [Methyl 3-cyano-2,6-dimethyl-4-(2-nitrophenyl)pyridine-5-carboxylate, reference compound], the LD50 at 168 h in data set [1] (iv, single i.v. administration) fell in the range of 50 to 100 mg/kg. Further, the change in vivo at 50 mg/kg in data set [2] (setting [6]) is 16%.

`Cc1cc(N2CCCNCC2)c([N+](=O)[O-])c(C)[n+]1[O-]` [Example 11] returned an LD50 at 168 h in data set [1] (iv, single i.v. administration) of 200 mg/kg. Besides, the change in vivo at 50 mg/kg in data set [2] (Rattus norvegicus) was -23%.

Values taken from patent US4859663A, “Multiply substituted pyridine 1-oxide compounds which are useful in treating brain disorders” (Hoechst Aktiengesellschaft, priority 1985, dated 1989).
